For one assay, the system named is A549 cells. Nature of the assay: Proliferation Assay (A549 cell viability, Cell Titer Fluor). Conditions: Homo sapiens, 72 hours. The format is cell-based. The method in brief:
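A549 cells in RPMI 1640 with 10% dialyzed FBS were seeded at 1000 cells/well, grown 24 h, then exposed to compound (0.5% DMSO final) for 72 h at 37 °C, 5% CO2. Viability was read by Cell Titer Fluor fluorescence; EC50 from four-parameter logistic fit.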

The target of assay [1] is T1, purified recombinant human GAC (GLS1) (Homo sapiens, UniProt O94925).
T1 sequence (O94925 55-598 isoform O94925-3 limits assumed): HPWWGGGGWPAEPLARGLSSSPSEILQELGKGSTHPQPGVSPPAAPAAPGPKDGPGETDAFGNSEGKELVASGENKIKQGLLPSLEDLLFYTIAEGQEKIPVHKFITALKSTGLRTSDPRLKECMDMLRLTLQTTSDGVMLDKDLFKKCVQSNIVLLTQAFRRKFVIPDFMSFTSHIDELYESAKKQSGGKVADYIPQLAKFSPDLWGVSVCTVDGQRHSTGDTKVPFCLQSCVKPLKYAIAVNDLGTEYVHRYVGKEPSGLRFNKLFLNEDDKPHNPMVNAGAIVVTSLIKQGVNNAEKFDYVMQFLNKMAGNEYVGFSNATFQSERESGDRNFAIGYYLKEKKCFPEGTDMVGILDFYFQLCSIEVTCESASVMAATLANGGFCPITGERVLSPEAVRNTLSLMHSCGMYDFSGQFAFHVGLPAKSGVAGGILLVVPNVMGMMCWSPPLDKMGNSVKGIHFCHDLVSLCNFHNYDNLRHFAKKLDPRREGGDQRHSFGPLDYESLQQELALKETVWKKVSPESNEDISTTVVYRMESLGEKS
Nature of the assay: GLS1 Enzymatic Activity Assay (dual-coupled enzymatic assay). The format is biochemical. The essentials: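 Recombinant human GAC (2 nM) preincubated with 50 mM potassium phosphate, then inhibitor (10 min each, RT); 1 mM glutamine, pH 7.4 Hepes buffer, 1% DMSO. Glutamate coupled via glutamate oxidase/HRP to resorufin (Ex 530/Em 590), kinetic or 20-min endpoint; IC50 by four-parameter logistic fit.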

Results on 25 compounds are retold here after patent US20160002248A1, “GLS1 INHIBITORS FOR TREATING DISEASE” (Board of Regents, The University of Texas System, priority 2014, published 2016).

Where only a bound is given, the exact number is not on record here.

As usually defined, the EC50 is the concentration at which the effect is half-maximal. The low end stands for higher potency in that assay, the high end for lower potency in that assay. As usually defined, the IC50 is the concentration that inhibits the measured activity by half. Consider `CC(C)CNC(=O)c1cn(CCCCc2cc3cc(Cc4ccccc4)[nH]c3nn2)nn1` [Example 65, 1-(4-{6-benzyl-7H-pyrrolo[2,3-c]pyridazin-3-yl}butyl)-N-(2-methylpropyl)-1H-1,2,3-triazole-4-carboxamide], for which the concentration for a half-maximal effect (EC50) in the assay on A549 cells was 100 to 500 nM. In addition, in assay [1], the IC50 was in the range of 500 to 5000 nM.
On to `O=C(Nc1nnc(CCCCc2cc3cc[nH]c3nn2)s1)[C@@H](O)c1ccccc1` [Example 66, (2S)-2-hydroxy-2-phenyl-N-[5-(4-{7H-pyrrolo[2,3-c]pyridazin-3-yl}butyl)-1,3,4-thiadiazol-2-yl]acetamide], for which, in the assay with A549 cells, the EC50 lay within 500 to 5000 nM. Moreover, the IC50 in assay [1] was in the range of 100 to 500 nM.
For `COCCNC(=O)c1nnc(CCCCc2cc3cc(Cc4ccccc4)[nH]c3nn2)s1` [Example 67, 5-(4-{6-benzyl-7H-pyrrolo[2,3-c]pyridazin-3-yl}butyl)-N-(2-methoxyethyl)-1,3,4-thiadiazole-2-carboxamide] the same measures were 100 to 500 nM and 100 to 500 nM.
As for `O=C(NCCO)c1nnc(CCCCc2cc3cc(Cc4ccccc4)[nH]c3nn2)s1` [Example 68, 5-(4-{6-benzyl-7H-pyrrolo[2,3-c]pyridazin-3-yl}butyl)-N-(2-hydroxyethyl)-1,3,4-thiadiazole-2-carboxamide], the concentration for a half-maximal effect (EC50) in the assay with A549 cells lay in the range of 500 to 5000 nM. Besides, the IC50 in assay [1] is 500 to 5000 nM.
With `O=C(NCC1COC1)c1nnc(CCCCc2cc3cc(Cc4ccccc4)[nH]c3nn2)s1` [Example 69, 5-(4-{6-benzyl-7H-pyrrolo[2,3-c]pyridazin-3-yl}butyl)-N-(oxetan-3-ylmethyl)-1,3,4-thiadiazole-2-carboxamide], the EC50 with A549 cells lay in the range of 500 to 5000 nM. Moreover, the half-maximal inhibitory concentration (IC50) in assay [1] was in the range of 100 to 500 nM.
In the assay with A549 cells, `CNC(=O)c1nnc(CCCCc2cc3cc(Cc4ccccc4)[nH]c3nn2)s1` [Example 70, 5-(4-{6-benzyl-7H-pyrrolo[2,3-c]pyridazin-3-yl}butyl)-N-methyl-1,3,4-thiadiazole-2-carboxamide] yielded an EC50 of 100 to 500 nM. The IC50 in assay [1] was 100 to 500 nM.
Consider `O=C(NC1COC1)c1nnc(CCCCc2cc3cc(Cc4ccccc4)[nH]c3nn2)s1` [Example 72, 5-(4-{6-benzyl-7H-pyrrolo[2,3-c]pyridazin-3-yl}butyl)-N-(oxetan-3-yl)-1,3,4-thiadiazole-2-carboxamide], for which the concentration giving a half-maximal response (EC50) in the assay on A549 cells is greater than 5000 nM. For the same compound, the IC50 in assay [1] was in the range of 100 to 500 nM.
The corresponding values for `O=C(NCc1ccccc1)c1nnc(CCCCc2cc3cc(Cc4ccccc4)[nH]c3nn2)s1` [Example 73, N-benzyl-5-(4-{6-benzyl-7H-pyrrolo[2,3-c]pyridazin-3-yl}butyl)-1,3,4-thiadiazole-2-carboxamide] are 500 to 5000 nM and less than 100 nM.
The corresponding values for `O=C(NCc1ccccn1)c1nnc(CCCCc2cc3cc(Cc4ccccc4)[nH]c3nn2)s1` [Example 74, 5-(4-{6-benzyl-7H-pyrrolo[2,3-c]pyridazin-3-yl}butyl)-N-(pyridin-2-ylmethyl)-1,3,4-thiadiazole-2-carboxamide] are 100 to 500 nM and less than 100 nM.
`O=C(NCc1ccncc1)c1nnc(CCCCc2cc3cc(Cc4ccccc4)[nH]c3nn2)s1` [Example 75, 5-(4-{6-benzyl-7H-pyrrolo[2,3-c]pyridazin-3-yl}butyl)-N-(pyridin-4-ylmethyl)-1,3,4-thiadiazole-2-carboxamide] came in with an EC50 in the assay with A549 cells of 500 to 5000 nM. Also, the IC50 in assay [1] lay in the range of 100 to 500 nM.
`O=C(NCc1cccnc1)c1nnc(CCCCc2cc3cc(Cc4ccccc4)[nH]c3nn2)s1` [Example 76, 5-(4-{6-benzyl-7H-pyrrolo[2,3-c]pyridazin-3-yl}butyl)-N-(pyridin-3-ylmethyl)-1,3,4-thiadiazole-2-carboxamide]: the concentration giving a half-maximal response (EC50) with A549 cells is 100 to 500 nM. Moreover, the concentration for half-maximal inhibition (IC50) in assay [1] was less than 100 nM.
On to `O=C(NCC1CC1)c1nnc(CCCCc2cc3cc(Cc4ccccc4)[nH]c3nn2)s1` [Example 77, 5-(4-{6-benzyl-7H-pyrrolo[2,3-c]pyridazin-3-yl}butyl)-N-(cyclopropylmethyl)-1,3,4-thiadiazole-2-carboxamide], for which the 50% effective concentration (EC50) in the assay with A549 cells lay in the range of 500 to 5000 nM. For the same compound, the half-inhibitory concentration (IC50) in assay [1] was in the range of 100 to 500 nM.
`O=C(NCC1CCOCC1)c1nnc(CCCCc2cc3cc(Cc4ccccc4)[nH]c3nn2)s1` [Example 78, 5-(4-{6-benzyl-7H-pyrrolo[2,3-c]pyridazin-3-yl}butyl)-N-(oxan-4-ylmethyl)-1,3,4-thiadiazole-2-carboxamide]: the EC50 in the assay on A549 cells was 500 to 5000 nM. Further, the half-inhibitory concentration (IC50) in assay [1] was 100 to 500 nM.
For `CC(C)(CO)CNC(=O)c1nnc(CCCCc2cc3cc(Cc4ccccc4)[nH]c3nn2)s1` [Example 79, 5-(4-{6-benzyl-7H-pyrrolo[2,3-c]pyridazin-3-yl}butyl)-N-(3-hydroxy-2,2-dimethylpropyl)-1,3,4-thiadiazole-2-carboxamide] the same measures were 500 to 5000 nM and 100 to 500 nM.
Consider `NC(=O)c1nnc(CCCCc2cc3cc(Cc4ccccc4)[nH]c3nn2)s1` [Example 80, 5-(4-{6-benzyl-7H-pyrrolo[2,3-c]pyridazin-3-yl}butyl)-1,3,4-thiadiazole-2-carboxamide], for which the EC50 in the assay with A549 cells lay within 500 to 5000 nM. In addition, in assay [1], the half-inhibitory concentration (IC50) was 100 to 500 nM.
In the case of `O=C(NCC(F)(F)F)c1nnc(CCCCc2cc3cc(Cc4ccccc4)[nH]c3nn2)s1` [Example 81, 5-(4-{6-benzyl-7H-pyrrolo[2,3-c]pyridazin-3-yl}butyl)-N-(2,2,2-trifluoroethyl)-1,3,4-thiadiazole-2-carboxamide], the EC50 with A549 cells is greater than 5000 nM. The IC50 in assay [1] was in the range of 100 to 500 nM.
For `O=C(NCC1CCOC1)c1nnc(CCCCc2cc3cc(Cc4ccccc4)[nH]c3nn2)s1` (centres unmarked) [Example 82, 5-(4-{6-benzyl-7H-pyrrolo[2,3-c]pyridazin-3-yl}butyl)-N-(oxolan-3-ylmethyl)-1,3,4-thiadiazole-2-carboxamide] the same measures were 500 to 5000 nM and 100 to 500 nM.
`O=C(NCCC(F)(F)F)c1nnc(CCCCc2cc3cc(Cc4ccccc4)[nH]c3nn2)s1` [Example 83, 5-(4-{6-benzyl-7H-pyrrolo[2,3-c]pyridazin-3-yl}butyl)-N-(3,3,3-trifluoropropyl)-1,3,4-thiadiazole-2-carboxamide] came in with a concentration for a half-maximal effect (EC50) in the assay with A549 cells greater than 5000 nM. The IC50 in assay [1] lay in the range of 100 to 500 nM.
`COC(C)(C)CNC(=O)c1nnc(CCCCc2cc3cc(Cc4ccccc4)[nH]c3nn2)s1` [Example 84, 5-(4-{6-benzyl-7H-pyrrolo[2,3-c]pyridazin-3-yl}butyl)-N-(2-methoxy-2-methylpropyl)-1,3,4-thiadiazole-2-carboxamide] yielded an EC50 in the assay on A549 cells of 500 to 5000 nM. Further, in assay [1], the 50% inhibitory concentration (IC50) lay within 100 to 500 nM.
The corresponding values for `O=C(NCc1ccccn1)c1cn(CCCCc2cc3cc(CC4CCCCC4)[nH]c3nn2)nn1` [Example 85, 1-(4-(6-(cyclohexylmethyl)-7H-pyrrolo[2,3-c]pyridazin-3-yl)butyl)-N-(pyridin-2-ylmethyl)-1H-1,2,3-triazole-4-carboxamide] are less than 100 nM and less than 100 nM.
In the assay with A549 cells, `CC(C)(O)c1ccc(CNC(=O)c2cn(CCCCc3cc4cc(C5CC5)[nH]c4nn3)nn2)cn1` [Example 86, 1-(4-{6-cyclopropyl-7H-pyrrolo[2,3-c]pyridazin-3-yl}butyl)-N-{[6-(2-hydroxypropan-2-yl)pyridin-3-yl]methyl}-1H-1,2,3-triazole-4-carboxamide] came in with an EC50 of 100 to 500 nM. In assay [1], the IC50 was less than 100 nM.
The corresponding values for `CC(C)(O)c1cccc(CNC(=O)c2cn(CCCCc3cc4cc(C5CC5)[nH]c4nn3)nn2)n1` [Example 87, 1-(4-(6-cyclopropyl-7H-pyrrolo[2,3-c]pyridazin-3-yl)butyl)-N-((6-(2-hydroxypropan-2-yl)pyridin-2-yl)methyl)-1H-1,2,3-triazole-4-carboxamide] are 500 to 5000 nM and 100 to 500 nM.
The corresponding values for `CCOC(=O)c1cccc(CNC(=O)c2cn(CCCCc3cc4cc(C5CC5)[nH]c4nn3)nn2)n1` [Example 88, ethyl 6-({[1-(4-{6-cyclopropyl-7H-pyrrolo[2,3-c]pyridazin-3-yl}butyl)-1H-1,2,3-triazol-4-yl]formamido}methyl)pyridine-2-carboxylate] are 500 to 5000 nM and less than 100 nM.
For `CC(C)(O)c1ccc(CNC(=O)c2cn(CCCCc3cc4c(Br)c(C5CC5)[nH]c4nn3)nn2)cn1` [Example 89, 1-(4-{5-bromo-6-cyclopropyl-7H-pyrrolo[2,3-c]pyridazin-3-yl}butyl)-N-{[6-(2-hydroxypropan-2-yl)pyridin-3-yl]methyl}-1H-1,2,3-triazole-4-carboxamide] the same measures were 100 to 500 nM and less than 100 nM.
The compound `Cc1ccc(CNC(=O)c2cn(CCCCc3cc4c(F)c(C5CC5)[nH]c4nn3)nn2)cn1` [Example 90, 1-(4-(6-cyclopropyl-5-fluoro-7H-pyrrolo[2,3-c]pyridazin-3-yl)butyl)-N-((6-methylpyridin-3-yl)methyl)-1H-1,2,3-triazole-4-carboxamide 2,2,2-trifluoroacetate] yielded a concentration giving a half-maximal response (EC50) in the assay with A549 cells of 500 to 5000 nM. Further, the IC50 in assay [1] was less than 100 nM.
